Results on eight compounds are retold here after US20220169654A1, “New Organic Compounds” (Servier Pharmaceuticals LLC, priority 2020, published 2022).

Some results are limits rather than exact numbers.

The subject of one experiment is HCT116 MTAP+/+. The experiment is described as follows: Inhibition of cellular proliferation, 4 days, Cell Titer Glo, HCT116 MTAP+/+. In kind it is cell-based. Conditions: Homo sapiens, HCT-116, 96 h, IC50 bin with Max Inh., read-out: 4 Day Relative Growth Inhibition (MTAP +/+). In outline:
(§1)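 IC50 derived from blank-corrected ATP luminescence (Cell Titer Glo) expressed relative to within-plate 0.2% DMSO wells. Compound, as a 10-point 3-fold series, was added 24 h after seeding the MTAP+/+ or MTAP−/− HCT116 cells and incubated 4 days at 37° C./5% CO2.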
Background: ATP-based viability assays read luminescence as a measure of living cells.

The target in another experiment is T1, MAT2A homodimer (Homo sapiens, UniProt P31153).
T1 construct: inferred from Ni sepharose purification with imidazole elution; made in house; host or cells: Sf9 insect cells, baculovirus (Bac to Bac, pFASTBAC1)
T1 sequence (P31153 whole entry): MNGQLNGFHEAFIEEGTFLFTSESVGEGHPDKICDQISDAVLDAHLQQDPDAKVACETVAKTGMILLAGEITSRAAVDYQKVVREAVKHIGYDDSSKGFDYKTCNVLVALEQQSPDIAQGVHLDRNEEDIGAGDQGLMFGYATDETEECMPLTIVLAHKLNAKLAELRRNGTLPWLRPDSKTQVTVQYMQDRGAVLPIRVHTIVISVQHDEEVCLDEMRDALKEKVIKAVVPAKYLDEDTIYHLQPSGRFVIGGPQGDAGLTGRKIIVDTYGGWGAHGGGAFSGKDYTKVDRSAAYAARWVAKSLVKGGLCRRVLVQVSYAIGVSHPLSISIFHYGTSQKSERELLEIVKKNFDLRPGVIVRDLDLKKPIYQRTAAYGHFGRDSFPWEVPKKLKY
The experiment is described as follows: MAT2A inhibition (biochemical, liberated phosphate, PiColorLock Gold). Conditions: recombinant MAT2A homodimer; IC50 bin with Max Inh.; read-out: Enzyme Inhibition Bin. In outline:
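Enzyme at 4 μg/mL and compound equilibrated 60 min at 25 °C, then 60 min reaction after adding substrate mix (500 μM ATP, 400 μM methionine). Released phosphate quantified by colorimetric kit against a phosphate standard curve to give IC50. Secondary format used 1 μg/mL enzyme with 5 h incubation.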

The subject of experiment [1] is SAM in HCT116 human colon carcinoma cell line with MTAP gene deleted (MTAP −/−). Briefly: Cellular assay of target engagement (SAM), LC-MS/MS, 72 hrs. In kind it is cell-based. Conditions: HCT-116, IC50 bin with Max Inh., read-out: Cell 72 h SAM Inhibition (MTAP −/−). The essentials: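 SAM levels were quantified by LC-MS/MS (m/z 399.2→250.1, d3-SAM internal standard) from cold methanol/acetic acid extracts, yielding IC50. Compound was applied as a 10-point 3-fold series for 72 hrs to MTAP −/− HCT116 cells seeded 24 hours before.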

The test system of another experiment is HCT116 MTAP−/−. Briefly: Inhibition of cellular proliferation, 4 days, Cell Titer Glo, HCT116 MTAP−/−. The experiment is classed as cell-based. The settings on record: Homo sapiens, HCT-116, 96 h, IC50 bin with Max Inh., read-out: 4 Day Relative Growth Inhibition (MTAP −/−). The essentials:
as §1

Consider `Cn1cc2cc(-n3nc4c(c(-c5ccc(C6CC6)nc5)c3=O)n(CC3CC3)c(=O)n4C)ccc2n1` [Example 198, 5-(cyclopropylmethyl)-4-(6-cyclopropylpyridin-3-yl)-7-methyl-2-(2-methyl-2H-indazol-5-yl)-2,7-dihydro-3H-imidazo[4,5-c]pyridazine-3,6(5H)-dione], for which the IC50 in the experiment with HCT116 MTAP+/+ was greater than 1000 nM; on MAT2A homodimer it was less than 100 nM; in experiment [1], less than 100 nM; in the experiment on HCT116 MTAP−/−, less than 100 nM.

Turning to `Cn1cc2cc(-n3nc4c(S(N)(=O)=O)cn(CC5CC5)c4c(-c4ccc(OC(F)F)cc4)c3=O)ccc2n1` [Example 184, 5-(cyclopropylmethyl)-4-(4-(difluoromethoxy)phenyl)-2-(2-methyl-2H-indazol-5-yl)-3-oxo-3,5-dihydro-2H-pyrrolo[3,2-c]pyridazine-7-sulfonamide], the IC50 was greater than 1000 nM in the experiment on HCT116 MTAP+/+, less than 100 nM on MAT2A homodimer, less than 100 nM in experiment [1] and 100 to 1000 nM in the experiment on HCT116 MTAP−/−.

Regarding `COc1ccc(-c2c(=O)n(-c3ccc4nn(C)cc4c3)nc3ccn(CC4CC4)c23)cn1` [Example 110, 5-(cyclopropylmethyl)-4-(6-methoxypyridin-3-yl)-2-(2-methyl-2H-indazol-5-yl)-2,5-dihydro-3H-pyrrolo[3,2-c]pyridazin-3-one], the IC50 with HCT116 MTAP+/+ was greater than 1000 nM; on MAT2A homodimer it was less than 100 nM; in experiment [1], less than 100 nM; in the experiment with HCT116 MTAP−/−, less than 100 nM.

For the compound `Cn1cc2cc(-n3nc4c(I)cn(CC5CC5)c4c(-c4ccc(C5CC5)nc4)c3=O)ccc2n1` [Example 117, 5-(cyclopropylmethyl)-4-(6-cyclopropylpyridin-3-yl)-7-iodo-2-(2-methyl-2H-indazol-5-yl)-2,5-dihydro-3H-pyrrolo[3,2-c]pyridazin-3-one], the IC50 in the experiment on HCT116 MTAP+/+ was greater than 1000 nM; at MAT2A homodimer, less than 100 nM; in experiment [1], less than 100 nM; in the experiment on HCT116 MTAP−/− it was less than 100 nM.

With `CCc1ccc(-c2c(=O)n(-c3ccc4nc(C)n(C)c4c3)nc3c(C#N)cn(CC4CC4)c23)cn1` [Example 152, 5-(cyclopropylmethyl)-2-(1,2-dimethyl-1H-benzo[d]imidazol-6-yl)-4-(6-ethylpyridin-3-yl)-3-oxo-3,5-dihydro-2H-pyrrolo[3,2-c]pyridazine-7-carbonitrile], the IC50 in the experiment on HCT116 MTAP+/+ was greater than 1000 nM; at MAT2A homodimer, less than 100 nM; in experiment [1], less than 100 nM; in the experiment with HCT116 MTAP−/− it was less than 100 nM.

Consider `C=C(CF)c1ccc(-c2c(=O)n(-c3ccc4nn(C)cc4c3)nc3c(C#N)cn(CC4CC4)c23)cn1` [Example 257, 5-(cyclopropylmethyl)-4-(6-(3-fluoroprop-1-en-2-yl)pyridin-3-yl)-2-(2-methyl-2H-indazol-5-yl)-3-oxo-3,5-dihydro-2H-pyrrolo[3,2-c]pyridazine-7-carbonitrile], for which the IC50 in the experiment with HCT116 MTAP+/+ was greater than 1000 nM; at MAT2A homodimer it was less than 100 nM; in experiment [1] it was 100 to 1000 nM; in the experiment with HCT116 MTAP−/−, 100 to 1000 nM.

For `CNC(=O)c1ccc(-c2c(=O)n(-c3ccc4nn(C)cc4c3)nc3ccn(CC4CC4)c23)cn1` [Example 144, 5-(5-(cyclopropylmethyl)-2-(2-methyl-2H-indazol-5-yl)-3-oxo-3,5-dihydro-2H-pyrrolo[3,2-c]pyridazin-4-yl)-N-methylpicolinamide], the IC50 with HCT116 MTAP+/+ was greater than 1000 nM; at MAT2A homodimer it was 100 to 1000 nM; in experiment [1] it was 100 to 1000 nM; with HCT116 MTAP−/− it was greater than 1000 nM.

For the compound `O=c1c(-c2ccc(OC(F)F)cc2)c2c(ccn2CC2CC2)nn1-c1ccc2ncsc2c1` [Example 224, 2-(benzo[d]thiazol-6-yl)-5-(cyclopropylmethyl)-4-(4-(difluoromethoxy)phenyl)-2,5-dihydro-3H-pyrrolo[3,2-c]pyridazin-3-one], the IC50 in the experiment with HCT116 MTAP+/+ is 100 to 1000 nM; on MAT2A homodimer, less than 100 nM; in experiment [1], less than 100 nM; in the experiment with HCT116 MTAP−/− it was less than 100 nM.
